The source of these data is ChEMBL document CHEMBL1139575, “Discovery and synthesis of a novel and selective drug-like P2X(1) antagonist” (Bioorg Med Chem Lett, 2005).

The target of one assay is T1, P2X purinoceptor 2 (Homo sapiens, UniProt Q9UBL9).
T1 sequence (Q9UBL9 whole entry): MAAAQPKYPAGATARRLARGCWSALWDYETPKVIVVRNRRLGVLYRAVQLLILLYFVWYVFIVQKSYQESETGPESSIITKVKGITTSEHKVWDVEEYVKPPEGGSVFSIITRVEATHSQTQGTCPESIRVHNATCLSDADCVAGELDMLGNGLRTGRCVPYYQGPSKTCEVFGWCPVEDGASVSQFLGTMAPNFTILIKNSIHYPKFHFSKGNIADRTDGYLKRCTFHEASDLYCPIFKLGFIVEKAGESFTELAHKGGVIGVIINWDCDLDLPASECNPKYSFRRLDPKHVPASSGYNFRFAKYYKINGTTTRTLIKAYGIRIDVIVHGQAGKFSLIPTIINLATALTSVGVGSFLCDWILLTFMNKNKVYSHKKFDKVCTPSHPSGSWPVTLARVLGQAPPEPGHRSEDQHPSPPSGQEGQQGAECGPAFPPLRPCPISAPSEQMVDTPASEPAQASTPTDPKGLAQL
Briefly: Inhibitory concentration against human P2X purinoceptor 2 (hP2X2) expressed in 1321N1 astrocytoma cells. Format: functional, cell-based.

Assay [1] in a line: Inhibitory concentration against P2X purinoceptor 2/3 expressed in 1321N1 astrocytoma cells. Format: functional, cell-based, Homo sapiens.
The next assay deals with T2, P2X purinoceptor 3 (Homo sapiens, UniProt P56373).
T2 sequence (P56373 whole entry): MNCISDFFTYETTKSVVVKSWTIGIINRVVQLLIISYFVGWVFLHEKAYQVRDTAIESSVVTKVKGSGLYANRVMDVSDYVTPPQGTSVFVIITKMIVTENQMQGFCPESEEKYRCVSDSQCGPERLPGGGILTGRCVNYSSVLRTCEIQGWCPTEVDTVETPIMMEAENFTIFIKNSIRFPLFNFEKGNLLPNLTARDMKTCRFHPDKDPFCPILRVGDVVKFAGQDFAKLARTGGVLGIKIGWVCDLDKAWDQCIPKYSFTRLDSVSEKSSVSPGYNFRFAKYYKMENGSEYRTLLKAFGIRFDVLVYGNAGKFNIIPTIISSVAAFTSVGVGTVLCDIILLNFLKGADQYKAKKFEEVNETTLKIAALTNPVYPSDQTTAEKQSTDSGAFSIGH
Briefly: Inhibitory concentration against human P2X purinoceptor 3 (hP2X3) expressed in CHO-K1 cells. It is filed as functional, cell-based.

A further assay addresses T3, P2X purinoceptor 1 (Homo sapiens, UniProt P51575).
T3 sequence (P51575 whole entry): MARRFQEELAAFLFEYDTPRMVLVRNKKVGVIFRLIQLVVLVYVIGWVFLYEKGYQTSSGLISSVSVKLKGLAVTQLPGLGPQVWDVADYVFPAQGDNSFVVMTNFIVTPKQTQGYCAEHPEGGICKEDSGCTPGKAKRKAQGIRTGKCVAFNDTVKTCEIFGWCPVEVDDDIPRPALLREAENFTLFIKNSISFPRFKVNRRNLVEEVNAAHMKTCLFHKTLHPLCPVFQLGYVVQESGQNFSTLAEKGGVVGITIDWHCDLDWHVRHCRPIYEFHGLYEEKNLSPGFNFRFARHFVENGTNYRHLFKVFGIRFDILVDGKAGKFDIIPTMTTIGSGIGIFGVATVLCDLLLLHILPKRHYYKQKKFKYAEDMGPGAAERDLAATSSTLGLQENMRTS
Kind of assay: Inhibitory concentration against human P2X purinoceptor 1 (hP2X1) expressed in CHO-K1 cells. Format: functional, cell-based.

Broadly, the IC50 is the concentration needed to halve the response being measured. Higher therefore signals lower potency.

Where only a bound is given, the exact number is not on record here.

For the molecule `O=C(N[C@H](Cc1cscn1)C(=O)N[C@@H](CC1CCCCC1)[C@@H](O)[C@@H](O)C1CC1)c1nc2ccccc2[nH]1`, the IC50 at P2X purinoceptor 2 was over 100 µM; in assay [1], over 100 µM; against P2X purinoceptor 3 it was over 100 µM; at P2X purinoceptor 1, 3 µM.
